Results on 2 substances are retold here after patent US11912755B2, “Endostatin fragments and variants for use in treating fibrosis” (iBio, Inc., priority 2015, dated 2024).

For data set [1], the system named is human primary lung fibroblasts. Conditions: adenovirally-expressed endostatin; fibroblasts pretreated with TGF-β; cited from earlier work.
The subject of data set [2] is patients with advanced solid tumors. The note with it: daily 1-hour intravenous infusion at doses up to 300 mg/m2; cited from earlier work.
Another data set has as its system rabbit ear scar model. Conditions: in vivo; cited from earlier work.
A further data set deals with IPF model. The note with it: rat, in vivo; cited from earlier work.
In the next data set the test system is liver fibrosis model. The note with it: mouse, in vivo; cited from earlier work.
Data set [3] has as its system diabetes/renal fibrosis model. Conditions: rat, in vivo; cited from earlier work.
The next data set deals with human skin explants. Description: Ex vivo human skin assay, dermal thickness. Type of data set: cell-based. On the procedure:
Ex vivo human skin assays. Human abdominal skin was obtained from corrective plastic surgery. As previously described (Yasuoka et al., The Open Rheumatol J 2008; 2:17-22), subcutaneous fat tissue was removed uniformly and skin tissue was cut into 1.5 cm×1.5 cm sections. The following were injected intradermally in a total volume of 100 μl 1×PBS: rE alone (1-10 μg/ml), endostatin peptides alone (10 μg/ml), rE or endostatin peptides (1-20 μg/ml) in combination with TGF-β (10 ng/ml), and TGF-β alone (10 ng/ml). In some experiments, human skin was first injected with TGF-β for 48 h followed by recombinant endostatin (rE) administration in the same injection site as TGF-β. Explants containing complete epidermal and dermal layers were cultured in an air liquid interface with the epidermal and keratin layers side up and exposed to air. The culture medium was replaced every other day. After 1 or 2 weeks, skin tissue corresponding to an area with 8-mm diameter centered around the injection site was harvested using disposable 8-mm ACUPUNCH® (Acuderm, Inc., Lauderdale, FL). Skin tissue was fixed in 10% formalin prior to embedding in paraffin.
(§1) Measurement of Skin Dermal Thickness. Six μm sections of paraffin-embedded human and mouse skin tissues were stained with hematoxylin and eosin (H&E). In some experiments, sections were stained with Masson trichrome which identifies collagens. Images were taken on a Nikon Eclipse 800 microscope. The thickness of the dermis was measured in 6 random fields of each section using the image/J® software. Data are shown in arbitrary units.

Data set [4] concerns TGF-β-induced dermal fibrosis in mouse skin. Description: In vivo TGF-β-induced dermal fibrosis in mouse skin. Conditions: 10 μg/ml intradermal with TGF-β 10 ng/ml; one week. As to the method: In Vivo Mouse Experiments. CB57BL6/J male mice were purchased from The Jackson Laboratory (Bar Harbor, ME). Human rE (10 μg/ml) or Endostatin peptides (10 μg/ml) in combination with TGF-β (10 ng/ml), or TGF-β alone were injected intradermally on the back of mice in a total volume of 100 μl 1×PBS. Mice were injected in two different skin sites and sacrificed one week post-injection. Skin surrounding the injection site was harvested and fixed in 10% formalin prior to embedding in paraffin.
as §1
E4, a peptide representing the carboxy terminus of human endostatin, can attenuate fibrosis triggered by multiple fibrogenic factors. The anti-fibrotic effects of E4 can be detected whether administered concomitantly with or following the fibrogenic trigger. The efficacy of E4 was confirmed in […] pre-clinical models of fibrosis: a) bleomycin-induced dermal fibrosis in vivo in mouse skin, b) TGF-β induced dermal fibrosis in mouse skin, and c) bleomycin-induced pulmonary fibrosis. E4 peptide or a control peptide (E1; representing the amino terminal region of endostatin) were administered at the same time as TGF-β or bleomycin or 3-4 days following TGF-β or bleomycin. Mice were sacrificed one and two weeks after TGF-β-initiation of dermal fibrosis, and two and three weeks after bleomycin-induced pulmonary fibrosis. Two different modes of administration of the E4 peptide were also tested. It was confirmed that intraperitoneal and intratracheal administration was effective. The amount of E4 that was administered was 10 μg/ml in a total volume of 100 μl for skin and IP injections and 50 μl for IT administration.
For these studies, fibrosis was assessed by measurement of dermal thickness on H&E skin sections (skin), assessment of collagen levels by Masson Trichrome staining (skin and lung), and measurement of collagen levels by Sircol assay (lung). Furthermore, to confirm the mechanism by which E4 exerts its anti-fibrotic effects, the production of extra-cellular matrix (ECM) components, the levels of enzymes that promote matrix stabilization and thus accumulation and levels of those that degrade ECM components, and levels of transcription factors downstream of the pro-fibrotic triggers were evaluated. Results were assessed using the unpaired t test and the 3-way ANOVA (for the ID1 data).

Data set [5] shares this test system. The note with it: single dose concurrently with TGF-β; cited from earlier work.

Consider Endostatin, for which the “FN and Col1α1 protein levels” value in data set [1] is recorded as “endostatin markedly reduced”. In addition, in data set [2], the tolerability entry is “well tolerated”. Moreover, the injury parameters result (in the data set with rabbit ear scar model; with IPF model; in the data set on liver fibrosis model; in data set [3]) was “reversed injury parameters” throughout.
As for “E3: synthetic peptide, SEQ ID NO: 20, amino acids 133-180 of human endostatin (SYCETWRTEAPSATGQASSLLGGRLLGQSAASCHHAYIVLCIENSFMT; E3 amino acid sequence)”, the “dermal thickness, baseline effect” value with human skin explants (injected alone, no TGF-β, rE 1, 5, 10 μg/ml, peptides 10 μg/ml) was “tendency towards reduction”. For the same substance, the “development of fibrosis as measured by dermal thickness” value in the data set with human skin explants (peptides 10 μg/ml with 10 ng/ml TGF-β, vs TGF-β alone) was “significantly abolished”. The “TGF-β-induced dermal fibrosis (dermal thickness)” value in [4] is “prevented”. For the same substance, the skin thickness entry in data set [5] is listed as “significantly decreased skin”.
